Data set [1] deals with Rat. The experiment in a line: concentration in liver after dosing. As to conditions: 0.5 h; dosed: Fluorotelomer alcohol 8+2; 80 mg/kg; oral; Female; Harlan Sprague Dawley.
Data set [2] deals with Rat. Put plainly: concentration in brain after dosing. Conditions: 1 h; dosed: Fluorotelomer alcohol 8+2; 80 mg/kg; oral; Female; Harlan Sprague Dawley.
The test system of data set [3] is Rat. Put plainly: concentration in kidney after dosing. Conditions: 3 h; dosed: Fluorotelomer alcohol 8+2; 80 mg/kg; oral; Female; Harlan Sprague Dawley.
In data set [4] the test system is Rat. Put plainly: concentration in plasma after dosing. As to conditions: dosed: Wyeth-14643, 5.0 mg/kg, oral, Male, Sprague-Dawley.
For data set [5], the system named is Rat. Put plainly: concentration in plasma after dosing. Conditions: 0.25 h; dosed: Wyeth-14643; 2.0 mg/kg; iv; Male; Sprague-Dawley.
The test system of data set [6] is Rat. Put plainly: concentration in plasma after dosing. As to conditions: dosed: Wyeth-14643, 2.0 mg/kg, oral, Male, Sprague-Dawley.
Data set [7] concerns Rat. Put plainly: concentration in plasma after dosing. As to conditions: 5 min; dosed: Di-n-butyl phthalate; 20 mg/kg; iv; Male; Sprague-Dawley.
Data set [8] has as its system Rat. The experiment in a line: concentration in plasma after dosing. As to conditions: 4 h; dosed: Di-n-butyl phthalate; 100 mg/kg; oral; Male; Sprague-Dawley.
In data set [9] the test system is Rat. Put plainly: concentration in plasma after dosing. Conditions: 3 h; dosed: Di-n-butyl phthalate; 100 mg/kg; oral; Male; Sprague-Dawley.
Data set [10] deals with Rat. Put plainly: concentration in plasma after dosing. As to conditions: 6 h; dosed: Di-n-butyl phthalate; 50 mg/kg; oral; Male; Sprague-Dawley.
Data set [11] relates to Rat. Put plainly: concentration in plasma after dosing. As to conditions: dosed: dichloroacetic acid, 40 mg/kg, oral, Female, Harlan Sprague Dawley.
For data set [12], the system named is Rat. The experiment in a line: concentration in plasma after dosing. Conditions: dosed: Perfluorodecanoic acid, 2 mg/kg, iv, Male, F344.
For data set [13], the system named is Rat. The experiment in a line: concentration in kidney after dosing. Conditions: 1 h; dosed: Perfluorodecanoic acid; 10 mg/kg; oral; Male; Harlan Sprague Dawley.
Data set [14] has as its system Rat. The experiment in a line: concentration in plasma after dosing. As to conditions: dosed: Perfluorodecanoic acid, 2 mg/kg, iv, Male, F344. The source holds these as a separate data set.
Data set [15] concerns Rat. The experiment in a line: concentration in plasma after dosing. Conditions: dosed: Perfluorodecanoic acid, 2 mg/kg, oral, Male, Harlan Sprague Dawley.
Data set [16] relates to Rat. The experiment in a line: concentration in brain after dosing. As to conditions: 24 h; dosed: Perfluorodecanoic acid; 10 mg/kg; oral; Female; Harlan Sprague Dawley.
The subject of data set [17] is Rat. Put plainly: concentration in plasma after dosing. As to conditions: dosed: Perfluorodecanoic acid, 2 mg/kg, oral, Male, Harlan Sprague Dawley. This is another data set of the same source.
Data set [18] relates to Rat. The experiment in a line: concentration in plasma after dosing. As to conditions: dosed: Perfluorodecanoic acid, 2 mg/kg, iv, Male, F344. The source holds these as a separate data set.
For data set [19], the system named is Rat. The experiment in a line: concentration in plasma after dosing. As to conditions: 20 min; dosed: Thiodiglycolic Acid; 20 mg/kg; iv; Female; F344.
For data set [20], the system named is Rat. Put plainly: concentration in heart after dosing. As to conditions: 4 h; dosed: Thiodiglycolic Acid; 20 mg/kg; iv; Female; Harlan Sprague Dawley.
Data set [21] has as its system Rat. Put plainly: concentration in thymus after dosing. Conditions: 6.667 h; dosed: Thiodiglycolic Acid; 20 mg/kg; iv; Female; Harlan Sprague Dawley.
For data set [22], the system named is Rat. The experiment in a line: concentration in thymus after dosing. Conditions: 10 min; dosed: Thiodiglycolic Acid; 20 mg/kg; iv; Female; Harlan Sprague Dawley.
The test system of data set [23] is Rat. The experiment in a line: concentration in heart after dosing. As to conditions: 10 h; dosed: Thiodiglycolic Acid; 20 mg/kg; iv; Male; F344.
Data set [24] has as its system Rat. Put plainly: concentration in liver after dosing. Conditions: 1 h; dosed: Thiodiglycolic Acid; 20 mg/kg; iv; Male; Harlan Sprague Dawley.
In data set [25] the test system is Rat. The experiment in a line: concentration in thymus after dosing. As to conditions: 6.667 h; dosed: Thiodiglycolic Acid; 20 mg/kg; iv; Female; Harlan Sprague Dawley. The source holds these as a separate data set.
In data set [26] the test system is Rat. The experiment in a line: concentration in liver after dosing. Conditions: 5.333 h; dosed: Thiodiglycolic Acid; 20 mg/kg; iv; Female; Harlan Sprague Dawley.
In data set [27] the test system is Rat. Put plainly: concentration in plasma after dosing. As to conditions: 5.333 h; dosed: Thiodiglycolic Acid; 20 mg/kg; iv; Male; Harlan Sprague Dawley.
Data set [28] has as its system Rat. Put plainly: concentration in plasma after dosing. As to conditions: 18 h; dosed: Primidone; 80 mg/kg; oral; Female; F344.
The test system of data set [29] is Rat. Put plainly: concentration in plasma after dosing. As to conditions: 5 h; dosed: Bis 2-Chloroethoxy Methane; 20 mg/kg; iv; Male; F344.
Data set [30] relates to Rat. Put plainly: concentration in plasma after dosing. As to conditions: 1 h; dosed: Bis 2-Chloroethoxy Methane; 20 mg/kg; iv; Male; F344.
The subject of data set [31] is Rat. Put plainly: concentration in plasma after dosing. As to conditions: 2 h; dosed: Bis 2-Chloroethoxy Methane; 20 mg/kg; iv; Female; F344.
The test system of data set [32] is Rat. The experiment in a line: concentration in thymus after dosing. As to conditions: 8 h; dosed: Bis 2-Chloroethoxy Methane; 20 mg/kg; iv; Female; Harlan Sprague-Dawley.
The test system of data set [33] is Rat. Put plainly: concentration in plasma after dosing. Conditions: 20 min; dosed: Bis 2-Chloroethoxy Methane; 20 mg/kg; iv; Female; F344.
The subject of data set [34] is Rat. The experiment in a line: concentration in liver after dosing. Conditions: 1 h; dosed: Bis 2-Chloroethoxy Methane; 20 mg/kg; iv; Female; F344.
Data set [35] has as its system Rat. Put plainly: concentration in plasma after dosing. As to conditions: 4 h; dosed: Bis 2-Chloroethoxy Methane; 40 mg/kg; iv; Male; Harlan Sprague Dawley.
For data set [36], the system named is Rat. Put plainly: concentration in thymus after dosing. As to conditions: 2 h; dosed: Bis 2-Chloroethoxy Methane; 20 mg/kg; iv; Female; F344.
For data set [37], the system named is Rat. Put plainly: concentration in thymus after dosing. Conditions: 7 h; dosed: Bis 2-Chloroethoxy Methane; 20 mg/kg; iv; Male; F344.

The molecule `OCCC(F)(F)C(F)(F)C(F)(F)C(F)(F)C(F)(F)C(F)(F)C(F)(F)C(F)(F)F` [Fluorotelomer alcohol 8+2] gave a concentration in liver in the data set with Rat [1] of 15900 ng/g. For the same molecule, in the data set on Rat [2], the concentration in brain turned out to be 4990 ng/g. Moreover, the concentration in kidney with Rat [3] stood at 5170 ng/g.

Consider `Cc1cccc(Nc2cc(Cl)nc(SCC(=O)O)n2)c1C`, for which the concentration in plasma amounted to 1920 ng/mL in the data set with Rat [4] (2 h); 999 ng/mL in the data set with Rat [4] (6 h); 9460 ng/mL with Rat [5]; 656 ng/mL in the data set with Rat [6] (2 h); 120 ng/mL in the data set on Rat [6] (7 h).

For `CCCCOC(=O)c1ccccc1C(=O)O` [Mono-n-butyl phthalate], the concentration in plasma came out at 38500 ng/mL with Rat [7], 3210 ng/mL in the data set with Rat [8], 1190 ng/mL in the data set on Rat [9] and 1890 ng/mL with Rat [10].

Regarding `O=C(O)C(Cl)Cl` [dichloroacetic acid], the results for the concentration in plasma with Rat [11] (2 min) and with Rat [11] (1 h) were 787 ng/mL and 6320 ng/mL, respectively.

Turning to `O=C(O)C(F)(F)C(F)(F)C(F)(F)C(F)(F)C(F)(F)C(F)(F)C(F)(F)C(F)(F)C(F)(F)F` [Perfluorodecanoic acid], the concentration in plasma is 5510 ng/mL in the data set on Rat [12] (24 h); 410 ng/mL with Rat [12] (1848 h); 8200 ng/mL with Rat [14] (5 min); 3280 ng/mL in the data set with Rat [14] (192 h); 8900 ng/mL in the data set with Rat [15] (12 h); 1160 ng/mL in the data set with Rat [15] (1200 h). Further, the concentration in plasma stood at 4920 ng/mL with Rat [17] (1 h); 5100 ng/mL in the data set with Rat [17] (192 h); 882 ng/mL in the data set on Rat [17] (2520 h); 6520 ng/mL in the data set on Rat [18] (1 h); 4120 ng/mL with Rat [18] (528 h); 71.5 ng/mL with Rat [18] (3360 h). Besides, the concentration in kidney with Rat [13] was found to be 10800 ng/g. Further, the concentration in brain with Rat [16] was 1820 ng/g.

As to `O=C(O)CSCC(=O)O` [Thiodiglycolic Acid], the concentration in plasma with Rat [19] was 7410 ng/mL; with Rat [27], 198 ng/mL. Also, the concentration in heart turned out to be 620 ng/g in the data set with Rat [20] and 483 ng/g in the data set with Rat [23]. Moreover, the results for the concentration in thymus in the data set on Rat [21], with Rat [22] and with Rat [25] were 391 ng/g, 10100 ng/g and 263 ng/g, respectively. Moreover, the results for the concentration in liver with Rat [24] and in the data set on Rat [26] were 126000 ng/g and 47900 ng/g, respectively.

Consider `CCC1(c2ccccc2)C(=O)NC(=O)NC1=O` [Phenobarbital], for which, in the data set on Rat [28], the concentration in plasma came out at 1900 ng/mL.

`ClCCOCOCCCl` [Bis 2-Chloroethoxy Methane]: the concentration in plasma stood at 36.5 ng/mL with Rat [29]; 1940 ng/mL in the data set with Rat [30]; 150 ng/mL with Rat [31]; 4820 ng/mL with Rat [33]; 238 ng/mL in the data set with Rat [35]. The concentration in thymus in the data set on Rat [32] was determined as 13.1 ng/g; with Rat [36], 376 ng/g; with Rat [37], 15.2 ng/g. For the same molecule, the concentration in liver in the data set with Rat [34] was 610 ng/g.

The values are drawn from EPA's CvTdb concentration-time database.
